Each structure is given as a SMILES string.

What all share (test): KiNativ chemical proteomics profiling in HeLa and PC3 cell lysates
What all share (assay type): binding

For assay [1], the target named is T1, selected panels of kinases in HeLa and PC3 cell lysates (Homo sapiens, UniProt Q9Y6E0).
T1 construct: endogenous in cells; host or cells: HeLa and PC3 cell lysates
As to conditions: 10 uM; proteome HEL; peptide DIk[…]; labeling site Lys2.

Assay [2] concerns the target T2, selected panels of kinases in HeLa and PC3 cell lysates (Homo sapiens, UniProt Q9UBF8).
T2 construct: endogenous in cells; host or cells: HeLa and PC3 cell lysates
The settings on record: 10 uM, PI4KB, peptide […]kDK, labeling site ATP.

In assay [3] the target is T3, selected panels of kinases in HeLa and PC3 cell lysates (Homo sapiens, UniProt P78527).
T3 construct: endogenous in cells; host or cells: HeLa and PC3 cell lysates
As to conditions: 10 uM, labeling site ATP.

For assay [4], the target named is T4, selected panels of kinases in HeLa and PC3 cell lysates (Homo sapiens, UniProt Q9UHD2).
T4 construct: endogenous in cells; host or cells: HeLa and PC3 cell lysates
The settings on record: 10 uM; TBK1; peptide TGDLFAIk[…]; proteome HEL; labeling site Lys1.

Assay [5] has as its target T5, selected panels of kinases in HeLa and PC3 cell lysates (Homo sapiens, UniProt O14757).
T5 construct: endogenous in cells; host or cells: HeLa and PC3 cell lysates
The settings on record: 10 uM; proteome HEL; peptide DIkPENLLLDER; labeling site Lys2.

Assay [6] deals with T6, selected panels of kinases in HeLa and PC3 cell lysates (Homo sapiens, UniProt O60674).
T6 construct: endogenous in cells; host or cells: HeLa and PC3 cell lysates
As to conditions: 10 uM; proteome HEL; peptide IGDFGLTk[…]; labeling site Activation Loop.

In assay [7] the target is T7, selected panels of kinases in HeLa and PC3 cell lysates (Homo sapiens, UniProt Q7RTN6).
T7 construct: endogenous in cells; host or cells: HeLa and PC3 cell lysates
As to conditions: 10 uM; STLK5; peptide YSVk[…]; proteome HEL; labeling site Activation Loop.

Assay [8] addresses T8, selected panels of kinases in HeLa and PC3 cell lysates (Homo sapiens, UniProt P15056).
T8 construct: endogenous in cells; host or cells: HeLa and PC3 cell lysates
The settings on record: 10 uM; proteome HEL; peptide DLk[…]; labeling site Lys2.

Assay [9] addresses T9, selected panels of kinases in HeLa and PC3 cell lysates (Homo sapiens, UniProt Q16644).
T9 construct: endogenous in cells; host or cells: HeLa and PC3 cell lysates
As to conditions: 10 uM; proteome HEL; peptide […]k[…]; labeling site ATP Loop.

Assay [10] addresses T10, selected panels of kinases in HeLa and PC3 cell lysates (Homo sapiens, UniProt Q13555).
T10 construct: endogenous in cells; host or cells: HeLa and PC3 cell lysates
The settings on record: 10 uM, peptide TSTQEYAAkIINTK, labeling site Lys1.

Assay [11] concerns the target T11, selected panels of kinases in HeLa and PC3 cell lysates (Homo sapiens, UniProt Q9UL54).
T11 construct: endogenous in cells; host or cells: HeLa and PC3 cell lysates
As to conditions: 10 uM; TAO2; peptide DVk[…]; proteome PC3; labeling site Lys2.

Assay [12] has as its target T12, selected panels of kinases in HeLa and PC3 cell lysates (Homo sapiens, UniProt P10398).
T12 construct: endogenous in cells; host or cells: HeLa and PC3 cell lysates
As to conditions: 10 uM; proteome HEL; peptide DLk[…]; labeling site Lys2.

The target of assay [13] is T13, selected panels of kinases in HeLa and PC3 cell lysates (Homo sapiens, UniProt O75582).
T13 construct: endogenous in cells; host or cells: HeLa and PC3 cell lysates
The settings on record: 10 uM; proteome HEL; peptide DIk[…]; labeling site Lys2.

Assay [14] deals with T14, selected panels of kinases in HeLa and PC3 cell lysates (Homo sapiens, UniProt Q9BZL6).
T14 construct: endogenous in cells; host or cells: HeLa and PC3 cell lysates
T14 sequence (Q9BZL6 1-878): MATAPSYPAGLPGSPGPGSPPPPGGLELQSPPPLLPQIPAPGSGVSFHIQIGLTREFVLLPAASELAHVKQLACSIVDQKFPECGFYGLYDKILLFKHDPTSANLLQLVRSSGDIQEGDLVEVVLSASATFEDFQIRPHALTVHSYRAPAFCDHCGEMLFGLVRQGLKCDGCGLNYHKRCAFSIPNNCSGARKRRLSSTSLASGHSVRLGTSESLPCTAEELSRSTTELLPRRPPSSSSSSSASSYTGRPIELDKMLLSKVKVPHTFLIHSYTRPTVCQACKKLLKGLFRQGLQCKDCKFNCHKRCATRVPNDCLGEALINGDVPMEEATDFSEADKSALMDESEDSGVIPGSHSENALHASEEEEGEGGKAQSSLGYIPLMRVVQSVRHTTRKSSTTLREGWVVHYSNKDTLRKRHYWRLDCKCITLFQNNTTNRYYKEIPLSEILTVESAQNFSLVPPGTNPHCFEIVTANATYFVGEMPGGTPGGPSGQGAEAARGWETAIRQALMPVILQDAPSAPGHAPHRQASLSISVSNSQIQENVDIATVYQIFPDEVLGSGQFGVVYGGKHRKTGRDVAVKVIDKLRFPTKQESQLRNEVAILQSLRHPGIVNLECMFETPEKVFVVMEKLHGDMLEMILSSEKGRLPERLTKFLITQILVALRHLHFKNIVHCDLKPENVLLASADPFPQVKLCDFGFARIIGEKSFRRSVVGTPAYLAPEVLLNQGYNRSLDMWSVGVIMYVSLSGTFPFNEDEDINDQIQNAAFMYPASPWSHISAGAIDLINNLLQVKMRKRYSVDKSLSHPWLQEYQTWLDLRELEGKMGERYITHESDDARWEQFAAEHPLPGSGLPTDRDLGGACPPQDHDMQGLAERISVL
As to conditions: 10 uM, PKD2, peptide DVAVkVIDK, labeling site Lys1.

For assay [15], the target named is T15, selected panels of kinases in HeLa and PC3 cell lysates (Homo sapiens, UniProt O95835).
T15 construct: endogenous in cells; host or cells: HeLa and PC3 cell lysates
As to conditions: 10 uM; proteome HEL; peptide ALYATkTLR; labeling site Lys1.

The target of assay [16] is T16, selected panels of kinases in HeLa and PC3 cell lysates (Homo sapiens, UniProt Q99683).
T16 construct: endogenous in cells; host or cells: HeLa and PC3 cell lysates
The settings on record: 10 uM; proteome HEL; peptide DIk[…]; labeling site Lys2.

T2 sequence (Q9UBF8 whole entry): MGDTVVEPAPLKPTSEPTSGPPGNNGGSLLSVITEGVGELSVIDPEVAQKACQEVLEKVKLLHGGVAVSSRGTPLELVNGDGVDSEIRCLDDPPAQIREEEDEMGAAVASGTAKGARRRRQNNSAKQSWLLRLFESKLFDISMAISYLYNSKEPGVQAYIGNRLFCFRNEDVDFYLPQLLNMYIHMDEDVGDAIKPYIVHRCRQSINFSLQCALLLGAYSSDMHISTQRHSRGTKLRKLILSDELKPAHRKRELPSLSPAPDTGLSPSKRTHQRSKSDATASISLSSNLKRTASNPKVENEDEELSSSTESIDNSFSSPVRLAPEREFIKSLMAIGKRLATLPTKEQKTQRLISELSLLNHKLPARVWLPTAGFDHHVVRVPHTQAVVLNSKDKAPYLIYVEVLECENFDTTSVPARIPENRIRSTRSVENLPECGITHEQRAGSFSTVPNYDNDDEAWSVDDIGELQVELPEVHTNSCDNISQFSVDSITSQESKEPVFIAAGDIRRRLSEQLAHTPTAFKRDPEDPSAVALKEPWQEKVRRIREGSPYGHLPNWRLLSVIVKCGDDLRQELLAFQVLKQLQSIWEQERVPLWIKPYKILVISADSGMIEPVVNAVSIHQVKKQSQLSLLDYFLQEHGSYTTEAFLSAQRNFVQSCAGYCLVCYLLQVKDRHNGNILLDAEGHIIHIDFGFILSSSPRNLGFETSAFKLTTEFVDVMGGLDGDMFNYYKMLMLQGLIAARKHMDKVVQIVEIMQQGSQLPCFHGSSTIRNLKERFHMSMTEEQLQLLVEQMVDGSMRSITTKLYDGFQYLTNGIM
T10 sequence (Q13555 whole entry): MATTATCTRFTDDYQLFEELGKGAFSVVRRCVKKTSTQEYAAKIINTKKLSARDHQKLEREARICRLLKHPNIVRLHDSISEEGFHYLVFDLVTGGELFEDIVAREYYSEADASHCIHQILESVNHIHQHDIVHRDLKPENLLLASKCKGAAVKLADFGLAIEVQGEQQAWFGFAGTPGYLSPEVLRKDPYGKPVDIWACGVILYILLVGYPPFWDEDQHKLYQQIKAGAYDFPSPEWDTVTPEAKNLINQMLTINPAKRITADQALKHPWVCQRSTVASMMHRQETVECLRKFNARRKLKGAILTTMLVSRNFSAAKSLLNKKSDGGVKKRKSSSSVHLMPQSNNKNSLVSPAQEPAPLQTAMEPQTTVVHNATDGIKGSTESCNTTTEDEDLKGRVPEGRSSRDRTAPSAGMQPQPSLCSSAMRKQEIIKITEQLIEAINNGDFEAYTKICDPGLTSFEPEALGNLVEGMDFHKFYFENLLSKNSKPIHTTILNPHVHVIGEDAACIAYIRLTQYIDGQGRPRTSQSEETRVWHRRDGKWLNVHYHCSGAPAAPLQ
T4 sequence (Q9UHD2 whole entry): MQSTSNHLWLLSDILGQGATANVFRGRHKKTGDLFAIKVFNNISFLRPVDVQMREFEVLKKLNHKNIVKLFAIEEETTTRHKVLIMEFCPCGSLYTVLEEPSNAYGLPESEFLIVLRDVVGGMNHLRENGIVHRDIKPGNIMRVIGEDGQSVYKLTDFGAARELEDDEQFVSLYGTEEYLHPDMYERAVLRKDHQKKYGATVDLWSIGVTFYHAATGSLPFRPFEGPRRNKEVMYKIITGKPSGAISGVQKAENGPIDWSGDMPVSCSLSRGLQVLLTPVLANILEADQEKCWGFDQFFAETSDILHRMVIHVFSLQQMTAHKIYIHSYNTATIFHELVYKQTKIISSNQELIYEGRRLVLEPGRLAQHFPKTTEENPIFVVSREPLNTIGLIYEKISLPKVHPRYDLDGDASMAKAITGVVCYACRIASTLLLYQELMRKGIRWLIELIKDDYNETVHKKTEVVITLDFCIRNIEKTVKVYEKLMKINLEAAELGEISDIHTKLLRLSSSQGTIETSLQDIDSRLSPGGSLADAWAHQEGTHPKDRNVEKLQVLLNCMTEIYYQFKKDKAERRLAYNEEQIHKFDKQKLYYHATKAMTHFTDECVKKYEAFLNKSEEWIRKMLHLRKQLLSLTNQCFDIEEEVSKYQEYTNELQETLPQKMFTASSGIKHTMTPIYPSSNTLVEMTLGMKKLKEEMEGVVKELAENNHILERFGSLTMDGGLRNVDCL
T8 sequence (P15056 whole entry): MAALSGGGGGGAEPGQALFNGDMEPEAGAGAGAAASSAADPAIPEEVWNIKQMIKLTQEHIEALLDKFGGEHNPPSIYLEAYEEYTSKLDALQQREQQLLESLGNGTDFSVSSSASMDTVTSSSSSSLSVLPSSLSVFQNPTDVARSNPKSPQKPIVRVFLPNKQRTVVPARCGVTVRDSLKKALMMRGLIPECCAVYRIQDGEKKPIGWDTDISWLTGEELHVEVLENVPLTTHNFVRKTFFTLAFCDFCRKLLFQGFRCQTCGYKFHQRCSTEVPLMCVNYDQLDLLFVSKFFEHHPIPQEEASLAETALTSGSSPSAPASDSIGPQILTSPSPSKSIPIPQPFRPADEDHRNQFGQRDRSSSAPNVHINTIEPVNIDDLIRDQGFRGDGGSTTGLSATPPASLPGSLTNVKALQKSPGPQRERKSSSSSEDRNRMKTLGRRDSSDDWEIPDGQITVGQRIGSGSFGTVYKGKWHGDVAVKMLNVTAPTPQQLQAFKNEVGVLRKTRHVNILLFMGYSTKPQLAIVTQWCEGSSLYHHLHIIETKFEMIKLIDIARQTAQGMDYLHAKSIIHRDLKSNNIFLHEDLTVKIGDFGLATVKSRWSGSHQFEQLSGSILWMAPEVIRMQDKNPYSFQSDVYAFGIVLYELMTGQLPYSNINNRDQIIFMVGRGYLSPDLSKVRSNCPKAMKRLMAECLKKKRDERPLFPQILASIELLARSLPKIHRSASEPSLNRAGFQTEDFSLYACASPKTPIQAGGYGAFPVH
T7 sequence (Q7RTN6 whole entry): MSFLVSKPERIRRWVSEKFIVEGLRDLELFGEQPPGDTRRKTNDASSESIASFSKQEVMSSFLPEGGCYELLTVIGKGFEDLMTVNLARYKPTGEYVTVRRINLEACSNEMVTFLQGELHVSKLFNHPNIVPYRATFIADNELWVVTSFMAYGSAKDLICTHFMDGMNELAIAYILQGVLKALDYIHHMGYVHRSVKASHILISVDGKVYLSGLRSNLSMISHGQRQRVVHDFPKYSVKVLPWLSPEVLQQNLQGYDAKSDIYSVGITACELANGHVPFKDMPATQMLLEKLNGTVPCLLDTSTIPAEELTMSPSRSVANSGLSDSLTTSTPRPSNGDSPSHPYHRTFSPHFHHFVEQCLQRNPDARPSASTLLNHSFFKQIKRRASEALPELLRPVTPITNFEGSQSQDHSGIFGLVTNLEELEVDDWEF
T11 sequence (Q9UL54 whole entry): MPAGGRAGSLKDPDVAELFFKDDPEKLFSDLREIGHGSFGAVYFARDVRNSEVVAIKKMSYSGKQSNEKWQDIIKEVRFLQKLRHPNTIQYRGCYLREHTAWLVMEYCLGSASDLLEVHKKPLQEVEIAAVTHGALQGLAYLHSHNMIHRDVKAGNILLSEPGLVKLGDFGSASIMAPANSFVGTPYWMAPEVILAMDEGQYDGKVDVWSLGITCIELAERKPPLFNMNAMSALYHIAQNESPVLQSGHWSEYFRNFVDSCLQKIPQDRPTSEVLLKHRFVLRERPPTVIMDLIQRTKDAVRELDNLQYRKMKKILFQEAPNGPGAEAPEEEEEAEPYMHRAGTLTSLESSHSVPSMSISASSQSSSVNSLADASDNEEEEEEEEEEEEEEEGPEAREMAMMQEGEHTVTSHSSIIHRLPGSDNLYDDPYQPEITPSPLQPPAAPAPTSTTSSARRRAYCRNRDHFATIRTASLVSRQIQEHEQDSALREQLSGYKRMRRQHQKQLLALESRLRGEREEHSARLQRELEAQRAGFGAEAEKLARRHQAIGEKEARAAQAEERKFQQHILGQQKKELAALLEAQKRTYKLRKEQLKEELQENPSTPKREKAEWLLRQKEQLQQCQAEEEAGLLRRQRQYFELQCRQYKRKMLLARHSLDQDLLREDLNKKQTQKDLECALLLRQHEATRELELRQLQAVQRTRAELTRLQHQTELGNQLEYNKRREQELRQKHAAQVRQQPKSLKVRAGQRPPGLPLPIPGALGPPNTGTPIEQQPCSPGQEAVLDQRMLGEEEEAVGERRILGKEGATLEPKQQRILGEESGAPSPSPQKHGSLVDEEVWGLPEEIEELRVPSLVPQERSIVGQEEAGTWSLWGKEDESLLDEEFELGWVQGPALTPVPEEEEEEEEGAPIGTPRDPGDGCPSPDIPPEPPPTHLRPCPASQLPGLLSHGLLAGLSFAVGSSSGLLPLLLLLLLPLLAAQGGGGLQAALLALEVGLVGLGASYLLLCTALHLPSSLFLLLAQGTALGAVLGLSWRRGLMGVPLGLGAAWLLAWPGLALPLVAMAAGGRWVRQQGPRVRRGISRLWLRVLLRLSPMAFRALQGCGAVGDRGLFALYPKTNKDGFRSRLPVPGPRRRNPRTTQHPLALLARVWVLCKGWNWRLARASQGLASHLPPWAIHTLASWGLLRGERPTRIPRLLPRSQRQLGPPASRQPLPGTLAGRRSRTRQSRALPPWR
T5 sequence (O14757 whole entry): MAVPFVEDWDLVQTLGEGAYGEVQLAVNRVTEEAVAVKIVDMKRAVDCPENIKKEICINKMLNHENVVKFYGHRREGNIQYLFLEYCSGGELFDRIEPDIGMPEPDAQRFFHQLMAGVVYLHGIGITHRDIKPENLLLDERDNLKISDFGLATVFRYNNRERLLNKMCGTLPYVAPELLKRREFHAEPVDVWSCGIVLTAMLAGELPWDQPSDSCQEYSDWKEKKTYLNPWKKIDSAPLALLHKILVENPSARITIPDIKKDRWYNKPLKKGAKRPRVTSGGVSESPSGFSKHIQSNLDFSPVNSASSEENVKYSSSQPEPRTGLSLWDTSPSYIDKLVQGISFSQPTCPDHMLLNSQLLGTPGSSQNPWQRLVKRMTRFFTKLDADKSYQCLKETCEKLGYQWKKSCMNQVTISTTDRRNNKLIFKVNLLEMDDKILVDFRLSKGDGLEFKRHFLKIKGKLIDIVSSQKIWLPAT

As to `COc1cc(C(=O)N2CCC(N3CCN(C)CC3)CC2)ccc1Nc1ncc2c(n1)N(C1CCCC1)c1ccccc1C(=O)N2C` [Compound 25, 11-cyclopentyl-2-((2-methoxy-4-(4-(4-methylpiperazin-1-yl)piperidine-1-carbonyl)phenyl)amino)-5-methyl-5H-benzo[e]pyrimido[5,4-b][1,4]diazepin-6(11H)-one], the “% Inhibiton, MST3” value in assay [1] came to 7.3%. In addition, the “% Inhibition PI4KB” value in assay [2] (proteome HEL) was -21.6%; in [2] (proteome PC3), -6.1%. Besides, the “% Inhibiton, DNAPK” value was 2.3% in assay [3] (proteome HEL, peptide […]k[…]); -16.3% in assay [3] (proteome PC3, peptide […]k[…]); -9.9% in [3] (proteome PC3, peptide k[…]). The “% Inhibition TBK1” value in [4] is listed as -96.8%. Also, the “% Inhibiton, CHK1” value in assay [5] was -12.3%. In addition, the “% Inhibiton, JAK2 domain2” value in [6] is listed as -9.0%. Further, the “% Inhibition STLK5” value in assay [7] is reported as -32.9%. In assay [8], the “% Inhibiton, BRAF” value is -0.2%. For the same molecule, in assay [9], the “% Inhibiton, MAPKAPK3” value is 1.8%. The “% Inhibiton, CaMK2g” value was found to be 8.7% in assay [10] (proteome HEL) and 7.8% in assay [10] (proteome PC3). In addition, the “% Inhibition TAO2” value in assay [11] stood at 0.261%. Moreover, in assay [12], the “% Inhibiton, ARAF” value is on record as -0.657%. Besides, the “% Inhibiton, MSK1 domain1” value in [13] worked out at 26.7%. Further, the entries for the “% Inhibition PKD2” value in assay [14] (proteome HEL) and in assay [14] (proteome PC3) were -7.1% and -2.6%, respectively. Besides, in assay [15], the “% Inhibiton, LATS1” value was found to be 7.2%. For the same molecule, the “% Inhibiton, MAP3K5” value in assay [16] is 17.3%.

In the case of `CCOc1cc(C(=O)N2CCC(N3CCN(C)CC3)CC2)ccc1Nc1ncc2c(n1)N(C1CCCC1)c1ccccc1C(=O)N2C` [Compound 26], the “% Inhibiton, MST3” value in assay [1] is recorded as 9.7%. Besides, the “% Inhibition PI4KB” value in assay [2] (proteome HEL) is listed as -1.9%; in assay [2] (proteome PC3), 3.6%. Also, the “% Inhibiton, DNAPK” value in [3] (proteome HEL, peptide […]k[…]) came out at 2.3%; in [3] (proteome PC3, peptide […]k[…]), 10.1%; in assay [3] (proteome PC3, peptide k[…]), 23.8%. Besides, the “% Inhibition TBK1” value in assay [4] is about 57.6%. For the same molecule, in [5], the “% Inhibiton, CHK1” value is given as 13.8%. Moreover, the “% Inhibiton, JAK2 domain2” value in [6] was 6.5%. For the same molecule, the “% Inhibition STLK5” value in assay [7] was about 72.8%. For the same molecule, in assay [8], the “% Inhibiton, BRAF” value is on record as 8.6%. For the same molecule, the “% Inhibiton, MAPKAPK3” value in assay [9] was found to be 20.8%. In addition, the entries for the “% Inhibiton, CaMK2g” value in assay [10] (proteome HEL) and in assay [10] (proteome PC3) were 7.3% and -4.7%, respectively. In assay [11], the “% Inhibition TAO2” value is reported as 7.2%. Further, the “% Inhibiton, ARAF” value in [12] is 2.9%. For the same molecule, the “% Inhibiton, MSK1 domain1” value in assay [13] is recorded as about 70.5%. The “% Inhibition PKD2” value in assay [14] (proteome HEL) was -14.3%; in [14] (proteome PC3), 26.9%. The “% Inhibiton, LATS1” value in assay [15] is 6.8%. For the same molecule, in assay [16], the “% Inhibiton, MAP3K5” value is -8.4%.

The values are drawn from publication PMC3914206.
